PubChem BioAssay AID1996
Converted amounts (≈) assume the structure as drawn.

Settings: buffer; pH 7.4; 200.0 µM

solubility kinetic [µg/mL] | SMILES
> 35.6 | C/C=C/C(=O)OCC(=O)Nc1cccc(F)c1
36.1 (≈ 135 µM) | COc1ccc(S(=O)(=O)Nc2cc(C)on2)cc1
38.3 (≈ 135 µM) | CC1(C)C2C(Cl)(Cl)C2(C)c2ccccc2N1C=O (stereo not given)
37 (≈ 137 µM) | CCOc1ccc(C=NCC(O)c2ccccc2)cc1 (stereo not given)
> 35.4 | COc1ccccc1CN1C(=O)CNC1=S
> 42.8 | O=c1[nH]c(CSc2cccc[n+]2[O-])nc2ccccc12
> 47.3 | CCOC(=O)C1CCN(S(=O)(=O)c2cn(C)c(C)n2)CC1
> 45 | N#Cc1c(-c2cccc([N+](=O)[O-])c2)nc2n(c1=O)CCS2
0.4 (≈ 1.22 µM) | O=C(OCc1ccc([N+](=O)[O-])cc1)c1cnc(Cl)c(Cl)c1
> 29.7 | O=S(=O)(O)c1nc2ccccc2[nH]1
< 0.7 | COc1cccc2c(Cl)c(CC=C(Cl)Cl)c(C)nc12
> 48.5 | O=C(Nc1cccc(NC(=O)c2cccs2)c1)c1cccnc1
39.7 (≈ 124 µM) | Cn1cnc(S(=O)(=O)Nc2ccc(OC(F)(F)F)cc2)c1
> 13.1 | O=C1NCCO1
10.6 (≈ 35.6 µM) | CCOc1ccccc1Nc1nc(-c2cccnc2)cs1
44.2 (≈ 140 µM) | Cc1ccccc1N1CCN(CC(=O)Nc2nccs2)CC1
> 63.7 | N#CCC(=O)Nc1ccc(C(=O)OCC(=O)N2CCN(C(=O)c3ccco3)CC2)cc1
> 44.5 | Cc1ccc(C)c(C(=O)N2CCN(c3ncccn3)CC2)c1
45.1 (≈ 121 µM) | Cc1cccc(NC(=O)C2CCCCN2S(=O)(=O)c2ccccc2)c1C (stereo not given)
> 41.8 | Cc1cccc(NCc2ccc(O)c3ncccc23)c1C
12.5 (≈ 40.8 µM) | CC(=O)c1cccc(NC(=O)c2cc(=O)[nH]c3ccccc23)c1
> 40.7 | O=C(Nc1ccon1)Nc1ccccc1C(F)(F)F

solubility kinetic [µg/mL] | SMILES
> 48.2 | CC(=O)c1ccc(NC(=S)NCCCN2CCOCC2)cc1
45.7 (≈ 146 µM) | O=C(CCc1ccccc1)N1CCN(c2ccccc2F)CC1
> 50.6 | C[C@H](NC(=O)c1ccccc1)C(=O)N1CCN(c2ccccc2)CC1
> 45.9 | O=C(O)CNS(=O)(=O)c1ccc2c3c(cccc13)C(=O)N2
4.9 (≈ 24.5 µM) | Cc1c2n(c3ccccc13)CC/C2=N\O
42 (≈ 146 µM) | CN(C)C(=O)C(NC(=O)c1ccccc1)=C(Cl)Cl
35.6 (≈ 123 µM) | C=CCc1ccc(OCCCNC2CCCC2)c(OC)c1
8.8 (≈ 26.2 µM) | CCOC(=O)c1sc(=S)n(CC)c1NC(=O)c1ccccc1
1.5 (≈ 4.63 µM) | O=C(NCc1ccc(Cl)c(Cl)c1)c1ccc2c(c1)OCO2
5.5 (≈ 14.4 µM) | O=C(Nc1ccc2c(c1)OCCO2)c1cccnc1Oc1ccc(Cl)cc1
> 39.1 | CC(=O)Nc1ccc(NC(=O)CC2CCCC2)cc1
32.3 (≈ 98.1 µM) | CC(=O)Nc1ccc(NC(=S)NC(=O)/C=C/c2ccco2)cc1
> 52.9 | O=C(CSc1nc(-c2ccc(F)cc2)cs1)NCC1CCCO1 (stereo not given)
> 48.1 | CN(CC(=O)OCC(N)=O)S(=O)(=O)c1ccc(Cl)cc1
> 40.5 | CC(C)N1CC(COc2ccccc2Cl)OC1=O (stereo not given)
43.4 (≈ 144 µM) | NC(=O)c1cc(S(=O)(=O)NCc2cccs2)cs1
34.8 (≈ 145 µM) | O=C1NC(c2ccccc2O)Nc2ccccc21 (stereo not given)
24.6 (≈ 78 µM) | CC1Cc2ccccc2N1CC(=O)NC(=O)NC1CCCCC1 (stereo not given)
> 64 | COc1ccc(NS(=O)(=O)c2cccc(C(=O)Nc3ccccc3C(=O)O)c2)cc1
6.2 (≈ 22 µM) | CC1Cc2ccccc2N1C(=O)/C=C/c1cccc(F)c1 (stereo not given)
9.3 (≈ 32.3 µM) | CC1CC(C)CN(S(=O)(=O)c2ccc(Cl)cc2)C1 (stereo not given)
> 30 | O=C(O)/C=C/c1cnc2ccccc2n1

solubility kinetic [µg/mL] | SMILES
1.3 (≈ 3.68 µM) | O=C(CSc1ncnc2ccccc12)Nc1ccc2c(c1)OCCO2
> 43.8 | O=C(O)c1ccc(S(=O)(=O)NCc2cccnc2)cc1
47.9 | O=C(O)CCCCCCCCCC[n+]1ccccc1.[Br-]
38.2 (≈ 136 µM) | CNC(=O)NC(=O)COc1c(F)c(F)cc(F)c1F
13.1 (≈ 40.5 µM) | O=C(c1csc(Nc2cccc3ccccc23)n1)N1CCCC1
12.7 (≈ 41.6 µM) | O=C(Nc1ccc2oc(-c3ccncc3)nc2c1)c1ccco1
1.7 (≈ 5.7 µM) | Cc1ccc(NCCC(=O)c2cccc([N+](=O)[O-])c2)c(C)c1
> 44.9 | CN(C)CCCNC(=O)c1cc(C(=O)c2ccccc2)c[nH]1
33.8 (≈ 116 µM) | COc1ccc(CCNC(=O)c2cccs2)cc1OC
> 44.3 | Cc1nc(SCC(=O)N2CCCCCC2)[nH]c(=O)c1C
1.1 (≈ 4.07 µM) | O=C(NC1CCCCC1)C(=O)c1c[nH]c2ccccc12
> 47.6 | CN(C)CCCNC(=O)c1cc(C(=O)c2ccc(F)cc2)c[nH]1
3.1 (≈ 11.4 µM) | CCc1nonc1NC(=O)c1oc2ccccc2c1C
> 44.2 | CC1(C)CC(NC(=O)c2cccc(Cl)c2)CC(C)(C)N1
> 52.9 | CCN(C(=O)Cc1c(C(=O)O)[nH]c2ccccc12)c1ccc(OC)cc1
> 55.3 | CC(C)C(C)(C#N)NC(=O)CN1C(=O)NC2(CCCc3ccccc32)C1=O (stereo not given)
8.1 (≈ 25.6 µM) | O=C(Nc1ccc(F)cc1)Oc1ccccc1N1CCOCC1
> 45.5 | Cn1cnc(S(=O)(=O)Nc2ccc(OC(F)F)cc2)c1
< 0.6 | CCOc1ccc(NC(=O)C2C3CC/C=C\CCC32)cc1 (stereo not given)
> 64.5 | Nc1ncnc2c1nc(Br)n2[C@@H]1O[C@@H]2COP(=O)([O-])O[C@H]2[C@H]1O.[Na+]
> 49.7 | COc1ccc(C(=O)C(C)OC(=O)CNC(=O)c2ccco2)cc1 (stereo not given)

Continued, compound first:

SMILES | solubility kinetic [µg/mL]
CCNC(=O)Cn1cc(C(F)(F)F)cc(Cl)c1=O | > 42.4
COc1ccc(C(=O)OCC(=O)N2CCCC2=O)c(OC)c1 | 40.3 (≈ 131 µM)
Cl.c1ccc(CCNCc2cccnc2)cc1 | 35.3
CCOC(=O)c1c(NC(=O)COC(=O)c2cnccn2)sc(C)c1C | 16.8 (≈ 46.2 µM)
Cc1c(C)c2ccc(OCC(=O)Nc3ccccn3)cc2oc1=O | < 0.3
COc1ccc(-n2cc(-c3ccccc3)[nH]c2=S)c(OC)c1 | 3.3 (≈ 10.6 µM)
O=C(O)C1C2CCC(C2)C1C(=O)Nc1cccc([N+](=O)[O-])c1 (stereo not given) | 13.9 (≈ 45.7 µM)
O=C(C#Cc1ccccc1)Nc1ccccc1F | 25.4 (≈ 106 µM)
O=C1c2ccccc2NC(c2cccc([N+](=O)[O-])c2)N1O (stereo not given) | > 42.8
Cc1ccc2c(CN(C)Cc3cccc(F)c3)cc(=O)oc2c1C | 2.9 (≈ 8.91 µM)
O=C(Nc1cccc(NC(=O)C2C3CC4OC(=O)C2C4C3)c1)c1ccccc1 (stereo not given) | 46.7 (≈ 124 µM)
COc1ccccc1N1CCN(CCc2ccccc2)CC1 | 37.5 (≈ 127 µM)
CC(=O)c1ccc(S(=O)(=O)N2CCN(C(C)C(=O)N(C)Cc3ccccc3)CC2)cc1 (stereo not given) | 44 (≈ 99.2 µM)
Cc1cc(OCC(=O)Nc2ccc3oc(=O)ccc3c2)ccc1Cl | 2.4 (≈ 6.98 µM)
CCN(CC(=O)NCc1ccc(F)cc1)C(=O)COc1ccccc1[N+](=O)[O-] | > 58.4
Cc1ccc(-n2c(SCC(=O)N3CCCCC3)nc(O)cc2=O)cc1 | 49.9 (≈ 139 µM)
Cc1cc(Nc2cccc(Cl)c2Cl)n2ncnc2n1 | > 44.1
CCOC(=O)c1sc(NC(=O)CN2CC(C)OC(C)C2)nc1C (stereo not given) | 49 (≈ 144 µM)
COc1ccc(S(=O)(=O)N2CCN3CCCC3C2)cc1 (stereo not given) | 41.8 (≈ 141 µM)
Cc1ccsc1C(=O)Nc1ccccc1N1CCCC1 | 27.6 (≈ 96.4 µM)
CC(C)c1ccc(C(=O)NC(=S)Nc2ccc3[nH]c(=O)[nH]c3c2)cc1 | 0.5 (≈ 1.41 µM)
CC1(C)C2CC=C(/C=N/NC(=O)C(N)=O)C1C2 (stereo not given) | > 35.3
Cc1cccc(N2C(=O)CN(Cc3cccs3)C2=S)c1 | 4.6 (≈ 15.2 µM)
CN1c2ccccc2C(=O)C(=C2SCCCS2)S1(=O)=O | 27 (≈ 82.5 µM)
COc1cc([N+](=O)[O-])ccc1NC(=O)Nc1ccc2c(c1)OCCO2 | < 0.2
O=C(/C=C/c1ccc(F)cc1)N1CC[C@@]2(O)CCCC[C@H]2C1 | > 45.5
CSc1ncccc1C(=O)OCCCC(=O)c1ccc(F)cc1 | 3.8 (≈ 11.4 µM)
O=C(CC(=O)c1ccccc1)Nc1cc([N+](=O)[O-])ccc1Cl | 0.6 (≈ 1.88 µM)

SMILES | solubility kinetic [µg/mL]
CCOc1ccc(-n2cnc3sc4c(c3c2=O)CCCC4)cc1 | 0.8 (≈ 2.45 µM)
CC(C)CCC(C(=O)O)C(C)CC(=O)NNC(=O)c1ccco1 (stereo not given) | > 48.7
COc1ccccc1NC(=O)N1CCCC1C(=O)NCc1cccs1 (stereo not given) | > 53.9
CCOCCCNC(=S)N1CCC(C(=O)c2ccc(C)cc2)CC1 | 51.8 (≈ 149 µM)
COc1ccc(-c2nc(CCl)cs2)cc1OC.Cl | 41.8
O=C(O)CC1(CC(=O)NCc2ccc(Cl)cc2)CCCCC1 | > 48.6
CCc1nc2ccc(N3CCN(C)CC3)cc2nc1CC | 35.2 (≈ 124 µM)
CCOc1ccc(C(NC(=O)CC)c2c(O)ccc3ccccc23)cc1 (stereo not given) | 2 (≈ 5.72 µM)
CN1CCN(c2ccc(CNS(=O)(=O)c3cccc(F)c3)cc2)CC1 | 6.7 (≈ 18.4 µM)
N#CC(c1ccccc1)N1CCOCC1 (stereo not given) | 20.7 (≈ 102 µM)
O=c1[nH]c(/C=C/c2ccc(Br)cc2)nc2ccccc12 | 0.8 (≈ 2.45 µM)
CCCc1cc(=O)oc2cc(OCC(=O)N3CCOCC3)c(Cl)cc12 | 3.8 (≈ 10.4 µM)
O=C(O)c1cc(=O)c2ccccc2[nH]1 | > 28.4
CSc1ncc(CN2CCc3c([nH]c4ccccc34)C2C(C)(C)C)cn1 (stereo not given) | 19.5 (≈ 53.2 µM)
COC(=O)c1cc(-c2ccc(OC)cc2)on1 | 9.7 (≈ 41.6 µM)
COc1ccc(C(=O)Nc2nc(-c3ccccn3)cs2)cc1S(=O)(=O)N1CCOCC1 | 6.8 (≈ 14.8 µM)
CCC(=O)c1ccc(OC(=O)N2CCOCC2)cc1 | > 39.5
O=[N+]([O-])c1ccc2nc(NS(=O)(=O)c3ccc(F)cc3)sc2c1 | 49.7 (≈ 141 µM)
Cc1ccc(NC2=C(Cl)C(=O)OC2OC(C)C)cc1 (stereo not given) | 34.8 (≈ 124 µM)
CC(=O)Nc1cc[n+](CC(=O)c2cccc([N+](=O)[O-])c2)cc1.[Cl-] | 40.3
O=C(C1CC1)N1c2ccccc2Sc2ccccc21 | 7.1 (≈ 26.6 µM)
COc1ccc(N2C(=O)CC(N3CCCCC3)C2=O)cc1 (stereo not given) | > 43.3
O=C(CSc1nc2c(c(=O)[nH]1)CCC2)Nc1cccc(F)c1 | 12.2 (≈ 38.2 µM)
O=C(NN1C(=O)NC2(CCCCC2)C1=O)c1cc(F)cc(F)c1 | > 48.5
CCCCOC(=O)Nc1nnc(C(C)C)s1 | > 36.5
Cc1ccc(NC(=O)C(C)NC(=O)OCc2ccccc2)cc1C (stereo not given) | 2.4 (≈ 7.35 µM)
CCN1CCC(NCC2CCCCC2)CC1 | 23.2 (≈ 103 µM)
